Assays:
A549 [1] = test: Dark toxicity in human A549 cells assessed as reduction in cell viability incubated under dark for 48 hrs measured after 48 hrs by CCK8 assay; assay type: functional, cell-based; conditions: A549, 48 h
Histone deacetylase 3 = Histone deacetylase 3 (Homo sapiens, UniProt O15379); test: Inhibition of human recombinant HDAC3 using Ac-Leu-Gly-Lys(Ac)-AMC as substrate by measuring fluorescence intensity incubated for 30 mins by microplate reader assay
A549 [2] = test: Induction of apoptosis in human A549 cells assessed as apoptotic cells at 0.5 uM in absence of light irradiation incubated for 48 hrs by annexin V-FITC staining based flow cytometry; assay type: functional
Histone deacetylase 1 = Histone deacetylase 1 (Homo sapiens, UniProt Q13547); test: Inhibition of human recombinant HDAC1 in human A 549 cells assessed as effect on acetyl-H4 expression measured after 24 hrs by western blot analysis; assay type: cell-based; conditions: A549, dose microM <=2, time 24.0 hrs
[3] = Drug uptake in human A549 cells assessed as compound localization in lysosome at 0.1 uM measured after 24 hrs by Lysotracker Green DND-26 dye based laser confocal microscopy; assay type: ADME, subcellular; conditions: a549, 24 h
[4] = target: T1, Protein deacetylase HDAC6 (Homo sapiens, UniProt Q9UBN7); test: Inhibition of human recombinant HDAC6 using Ac-Leu-Gly-Lys(Ac)-AMC as substrate by measuring fluorescence intensity incubated for 30 mins by microplate reader assay
T1 sequence (Q9UBN7 whole entry): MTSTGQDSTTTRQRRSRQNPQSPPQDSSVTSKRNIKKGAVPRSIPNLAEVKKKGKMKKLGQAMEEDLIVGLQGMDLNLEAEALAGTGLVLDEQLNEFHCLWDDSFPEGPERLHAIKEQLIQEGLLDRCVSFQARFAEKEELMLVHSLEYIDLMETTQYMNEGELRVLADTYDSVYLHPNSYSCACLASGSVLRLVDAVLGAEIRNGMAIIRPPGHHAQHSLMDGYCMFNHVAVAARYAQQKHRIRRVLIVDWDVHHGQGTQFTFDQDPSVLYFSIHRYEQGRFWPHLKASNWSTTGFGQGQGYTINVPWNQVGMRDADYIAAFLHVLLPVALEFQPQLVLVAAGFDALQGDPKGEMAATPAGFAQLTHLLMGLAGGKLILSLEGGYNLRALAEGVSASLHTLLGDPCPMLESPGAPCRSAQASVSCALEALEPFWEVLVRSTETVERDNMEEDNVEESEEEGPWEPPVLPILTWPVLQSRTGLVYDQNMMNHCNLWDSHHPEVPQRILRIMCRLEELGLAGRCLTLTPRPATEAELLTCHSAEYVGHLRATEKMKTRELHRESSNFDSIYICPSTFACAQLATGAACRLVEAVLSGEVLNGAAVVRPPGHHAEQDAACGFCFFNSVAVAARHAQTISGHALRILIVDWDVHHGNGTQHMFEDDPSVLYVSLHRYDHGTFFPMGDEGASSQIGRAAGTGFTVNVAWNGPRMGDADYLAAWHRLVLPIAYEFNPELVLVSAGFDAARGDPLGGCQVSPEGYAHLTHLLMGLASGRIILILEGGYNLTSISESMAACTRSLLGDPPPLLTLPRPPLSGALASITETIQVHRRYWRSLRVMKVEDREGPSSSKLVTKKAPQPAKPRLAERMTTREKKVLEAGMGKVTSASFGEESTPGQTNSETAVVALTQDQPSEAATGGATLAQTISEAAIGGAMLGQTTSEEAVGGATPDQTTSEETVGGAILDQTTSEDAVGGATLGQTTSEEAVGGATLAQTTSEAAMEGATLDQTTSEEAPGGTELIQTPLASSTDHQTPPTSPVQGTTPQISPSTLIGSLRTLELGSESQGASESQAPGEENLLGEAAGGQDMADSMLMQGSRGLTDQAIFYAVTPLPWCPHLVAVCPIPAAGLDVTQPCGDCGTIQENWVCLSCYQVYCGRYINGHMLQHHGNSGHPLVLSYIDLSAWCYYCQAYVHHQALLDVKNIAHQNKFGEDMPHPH

Histone deacetylase 1, sequence (Q13547 whole entry): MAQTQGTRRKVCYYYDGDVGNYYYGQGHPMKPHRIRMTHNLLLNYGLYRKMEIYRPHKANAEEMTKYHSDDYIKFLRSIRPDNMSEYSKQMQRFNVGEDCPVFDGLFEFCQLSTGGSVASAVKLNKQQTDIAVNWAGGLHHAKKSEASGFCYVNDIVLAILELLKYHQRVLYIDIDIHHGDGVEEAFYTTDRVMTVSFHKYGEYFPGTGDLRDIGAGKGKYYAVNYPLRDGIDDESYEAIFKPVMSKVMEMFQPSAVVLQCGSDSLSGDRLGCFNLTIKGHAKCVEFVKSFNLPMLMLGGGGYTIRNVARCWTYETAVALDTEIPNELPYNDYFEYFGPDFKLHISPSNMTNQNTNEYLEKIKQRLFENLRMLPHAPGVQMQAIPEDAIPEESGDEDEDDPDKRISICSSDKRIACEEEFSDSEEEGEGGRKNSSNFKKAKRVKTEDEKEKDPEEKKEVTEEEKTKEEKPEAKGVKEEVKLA
Histone deacetylase 3, sequence (O15379 whole entry): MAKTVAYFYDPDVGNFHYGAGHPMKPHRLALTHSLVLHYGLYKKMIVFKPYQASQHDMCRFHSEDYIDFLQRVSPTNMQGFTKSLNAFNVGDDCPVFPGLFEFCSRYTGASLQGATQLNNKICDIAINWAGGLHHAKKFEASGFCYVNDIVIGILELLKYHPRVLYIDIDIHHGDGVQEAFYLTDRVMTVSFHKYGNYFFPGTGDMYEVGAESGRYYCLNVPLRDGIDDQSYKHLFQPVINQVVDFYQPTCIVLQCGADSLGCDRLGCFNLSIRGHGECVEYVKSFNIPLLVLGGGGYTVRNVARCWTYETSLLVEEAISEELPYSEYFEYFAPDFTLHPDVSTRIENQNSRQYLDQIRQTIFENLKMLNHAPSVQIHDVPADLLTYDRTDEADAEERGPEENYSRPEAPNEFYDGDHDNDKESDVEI

- IC50 (Histone deacetylase 3): 72.1 µM
- inhibition (Histone deacetylase 1): Dose-Dependent Effect
- Drug uptake [3]: Active
- IC50 [4]: > 100 µM
SMILES: C=Cc1c(C)c2cc3nc(c(C(=O)OC)c4[nH]c(cc5nc(cc1[nH]2)C(C)=C5CC)c(C)c4C(=O)OC)[C@@H](CCC(=O)Nc1ccc(C(=O)Nc2ccccc2N)cc1)[C@@H]3C
- IC50 (A549 [1]): 0.3 µM
- Activity (A549 [2]): 54.74%
